Source: article PMC8129498, “Synthesis, Antitumor and Antiviral In Vitro Activities of New Benzotriazole-Dicarboxamide Derivatives” (Frontiers in Chemistry, 2021)

How the values were obtained:
[1] = Cytotoxicity in Vero-76 cell-line (MTT); format: cell-based; details: monkey (Cercopithecus aethiops), Vero-76 cells (mock-infected), mock-infected Vero-76 cells
Method: Vero-76 cells were seeded in 96-well plates at an initial density of 5 × 10^5 cells/ml, in Dulbecco’s Modified Eagle Medium (D-MEM) with L-glutamine and 25 mg/L kanamycin, supplemented with 10% FBS. Cell cultures were then incubated at 37°C in a humidified and 5% CO2 atmosphere, in the absence or presence of serial dilutions of test compounds. The test medium used for the cytotoxic assay as well as for antiviral assay contained 1% of the appropriate serum. Cell viability was determined after 48–96 h at 37°C by MTT method for Vero-76 ([Pauwels et al., 1988]).
(§1) The extent of cell growth/viability and viral multiplication, at each drug concentration tested, were expressed as percentage of untreated controls. Concentrations resulting in 50% inhibition (CC50 or EC50) were determined by linear regression analysis.

[2] = tested on: Poliovirus type-1 (Sb-1); test: microbe, parasite or virus in culture; format: cell-based; details: Enterovirus C, Vero 76, read-out: EC50, plaque reduction Sb-1
[3] = tested on: Coxsackievirus B5 (CV-B5); test: Plaque reduction assay, CV-B5 in Vero-76 monolayers; format: cell-based; details: Enterovirus B
[4] = tested on: CCRF-CEM; test: Antiproliferative assay (MTT), CCRF-CEM; format: cell-based, human; details: Homo sapiens, CCRF-CEM, 96 h, read-out: CC50 CCRF-CEM
Method: (§2) Cell lines were purchased from American Type Culture Collection (ATCC). The absence of mycoplasma contamination was checked periodically by the Hoechst staining method. Exponentially growing leukemia and lymphoma cells were seeded at 1 × 10^5 cells/ml in 96 well plates in RPMI-1640 medium, supplemented with 10% fetal bovine serum, 100 units/ml penicillin G, and 100 μg/ml streptomycin, and incubated at 37°C in a humidified, 5% CO2 atmosphere in the absence or presence of serial dilutions of test compounds. Cell viability was determined after 96 h at 37°C by the 3-(4,5-dimethylthiazol-2-yl)-2,5-diphenyl-tetrazolium bromide (MTT) method. Activity against solid-tumor derived cells was evaluated in exponentially growing cultures seeded at 5 × 10^4 cells/ml and allowed to adhere for 16 h to culture plates before the addition of the drugs. Cell viability was determined by the MTT method 4 days later. Vincristine and doxorubicin were used as reference drugs.
as §1

[5] = tested on: WIL-2NS; test: Antiproliferative assay (MTT), WIL-2NS; format: cell-based; details: Homo sapiens, WIL2-NS, 96 h, read-out: CC50 WIL-2NS
Method: as §2, §1

[6] = tested on: CCRF-SB; test: Antiproliferative assay (MTT), CCRF-SB; format: cell-based; details: Homo sapiens, 96 h, read-out: CC50 CCRF-SB
Method: as §2, §1

[7] = tested on: SK-MEL28; test: Antiproliferative assay (MTT), SK-MEL28; format: cell-based; details: Homo sapiens, SK-MEL-28, 96 h, read-out: CC50 SK-MEL28
Method: as §2, §1

[8] = tested on: SK-MES1; test: Antiproliferative assay (MTT), SK-MES1; format: cell-based; details: Homo sapiens, SK-MES-1, 96 h, read-out: CC50 SK-MES1
Method: as §2, §1

[9] = tested on: DU145; test: Antiproliferative assay (MTT), DU145; format: cell-based; details: Homo sapiens, DU-145, 96 h, read-out: CC50 DU145
Method: as §2, §1

[10] = tested on: HeLa; test: Antiproliferative assay (MTT), HeLa; format: cell-based; details: Homo sapiens, 96 h, read-out: CC50 HeLa
Method: as §2, §1

[11] = Antiproliferative assay (MTT), CRL 7065 control fibroblasts; format: cell-based, human; details: human
Method: as §2, §1

O=C(Nc1ccc(-n2nc3cc(Cl)c(Cl)cc3n2)cc1)c1ccc(C(=O)Nc2ccc(-n3nc4cc(Cl)c(Cl)cc4n3)cc2)s1
melting point: > 300 °C

O=C(O)c1cccc(C(=O)Nc2ccc(-n3nc4cc(Cl)c(Cl)cc4n3)cc2)n1
melting point: 240 °C

O=C(CCC(=O)Nc1ccc(Cn2nnc3ccccc32)cc1)Nc1ccc(Cn2nnc3ccccc32)cc1
melting point: 255 to 257 °C

O=C(CCCC(=O)Nc1ccc(Cn2nnc3ccccc32)cc1)Nc1ccc(Cn2nnc3ccccc32)cc1
melting point: 237 to 238 °C

O=C(CCCCC(=O)Nc1ccc(Cn2nnc3ccccc32)cc1)Nc1ccc(Cn2nnc3ccccc32)cc1
melting point: 231 to 232 °C

O=C(Nc1ccc(Cn2nnc3ccccc32)cc1)c1ccc(C(=O)Nc2ccc(Cn3nnc4ccccc43)cc2)cc1
melting point: > 300 °C

O=C(Nc1ccc(Cn2nnc3ccccc32)cc1)c1cccc(C(=O)Nc2ccc(Cn3nnc4ccccc43)cc2)n1
melting point: 111 to 112 °C

O=C(Nc1ccc(Cn2nnc3ccccc32)cc1)c1ccc(C(=O)Nc2ccc(Cn3nnc4ccccc43)cc2)s1
melting point: > 300 °C

Cc1cc2nnn(Cc3ccc(NC(=O)CCC(=O)Nc4ccc(Cn5nnc6cc(C)c(C)cc65)cc4)cc3)c2cc1C
melting point: 270 to 272 °C

Cc1cc2nnn(Cc3ccc(NC(=O)CCCC(=O)Nc4ccc(Cn5nnc6cc(C)c(C)cc65)cc4)cc3)c2cc1C
melting point: 253 to 255 °C

Cc1cc2nnn(Cc3ccc(NC(=O)CCCCC(=O)Nc4ccc(Cn5nnc6cc(C)c(C)cc65)cc4)cc3)c2cc1C
melting point: 283 to 285 °C

Cc1cc2nnn(Cc3ccc(NC(=O)/C=C/C(=O)Nc4ccc(Cn5nnc6cc(C)c(C)cc65)cc4)cc3)c2cc1C
melting point: 117 to 119 °C

Cc1cc2nnn(Cc3ccc(NC(=O)c4cccc(C(=O)Nc5ccc(Cn6nnc7cc(C)c(C)cc76)cc5)n4)cc3)c2cc1C
melting point: 186 to 188 °C

Cc1cc2nnn(Cc3ccc(NC(=O)c4ccc(C(=O)Nc5ccc(Cn6nnc7cc(C)c(C)cc76)cc5)s4)cc3)c2cc1C
melting point: 225 to 227 °C

O=C(CCCCC(=O)Nc1ccc(Cn2nnc3cc(Cl)c(Cl)cc32)cc1)Nc1ccc(Cn2nnc3cc(Cl)c(Cl)cc32)cc1
melting point: > 300 °C

O=C(/C=C/C(=O)Nc1ccc(Cn2nnc3cc(Cl)c(Cl)cc32)cc1)Nc1ccc(Cn2nnc3cc(Cl)c(Cl)cc32)cc1
melting point: > 300 °C

O=C(Nc1ccc(Cn2nnc3cc(Cl)c(Cl)cc32)cc1)c1cccc(C(=O)Nc2ccc(Cn3nnc4cc(Cl)c(Cl)cc43)cc2)n1
melting point: > 300 °C

O=C(Nc1ccc(Cn2nnc3cc(Cl)c(Cl)cc32)cc1)c1ccc(C(=O)Nc2ccc(Cn3nnc4cc(Cl)c(Cl)cc43)cc2)s1
melting point: > 300 °C

C#C[C@@]1(O)[C@H](O)[C@@H](CO)O[C@H]1n1ccc(N)nc1=O [Compound 2ec, 2′-C-ethynyl-cytidine, reference compound]
CC50 [1]: > 100 µM | EC50 [2]: 23 µM

O=C(O)CCC(=O)Nc1ccc(-n2nnc3cc(Cl)c(Cl)cc32)cc1 [Compound 4a, 4-((4-(5,6-Dichloro-1H-Benzo[d][1,2,3]Triazol-1-yl)phenyl)amino)-4-oxobutanoic Acid]
CC50 [1]: 90 µM | EC50 [3]: 13 µM | EC50 [2]: > 90 µM | melting point: 163 to 164 °C

O=C(O)CCCC(=O)Nc1ccc(-n2nnc3cc(Cl)c(Cl)cc32)cc1 [Compound 4b, 5-((4-(5,6-Dichloro-1H-Benzo[d][1,2,3]Triazol-1-yl)phenyl)amino)-5-oxopentanoic Acid]
CC50 [1]: > 100 µM | EC50 [3]: 45 µM | EC50 [2]: 44 µM | melting point: 106 to 108 °C

O=C(O)CCCCC(=O)Nc1ccc(-n2nnc3cc(Cl)c(Cl)cc32)cc1 [Compound 4c, 6-((4-(5,6-Dichloro-1H-Benzo[d][1,2,3]Triazol-1-yl)phenyl)amino)-6-oxohexanoic Acid]
CC50 [1]: 37 µM | EC50 [3]: 9 µM | EC50 [2]: > 37 µM | melting point: 148 to 150 °C

O=C(CCC(=O)Nc1ccc(Cn2nnc3cc(Cl)c(Cl)cc32)cc1)Nc1ccc(Cn2nnc3cc(Cl)c(Cl)cc32)cc1 [Compound 9a, N ^1,N ^4-Bis(4-((5,6-Dichloro-1H-Benzo[d][1,2,3]Triazol-1-yl)methyl)phenyl)Succinamide]
CC50 [1]: > 100 µM | EC50 [3]: 23 µM | EC50 [2]: 43 µM | melting point: > 300 °C

COc1cccc2c1C(=O)c1c(O)c3c(c(O)c1C2=O)C[C@@](O)(C(=O)CO)C[C@@H]3O[C@H]1C[C@H](N)[C@H](O)[C@H](C)O1 [Doxorubicin, reference compound]
CC50 [4]: 0.02 ± 0.01 µM | CC50 [5]: 0.06 ± 0.01 µM | CC50 [6]: 0.03 ± 0.02 µM | CC50 [7]: 1.1 ± 0.2 µM | CC50 [8]: 0.65 ± 0.05 µM | CC50 [9]: 0.3 ± 0.1 µM | CC50 [10]: 1.8 ± 0.2 µM | CC50 at 96 h [11]: 2 ± 0.2 µM

Cc1cc(CCCOc2c(C)cc(-c3noc(C(F)(F)F)n3)cc2C)on1 [P, Pleconaril, reference compound]
CC50 [1]: > 100 µM | EC50 [3]: 0.005 µM
